Columns and labels:
[1] = compound: CN(C)C(=N)NC(=N)N [Metformin] + CCNC(=O)c1noc(-c2cc(C(C)C)c(O)cc2O)c1-c1ccc(CN2CCOCC2)cc1 [Luminespib] (partner 0.01 µM); assay: relative viability (nuclei count vs DMSO), 5 days (fraction); higher = more cells survive
How it was run: (§1)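 One day after seeding in 1536-well plates, lung cancer cell lines were dosed by pin tool. Dosing was either single-drug or a fixed anchor-drug dose plus five library-drug doses (not always all listed) in √10 steps. After 5 days, nuclei were stained in one fix-and-stain step and counted on 4× images, and relative viability is the nuclei count of treated wells over that of vehicle wells, given as the median of duplicate plates.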

[2] = compound: CN(C)C(=N)NC(=N)N [Metformin] + Cc1nc(Nc2ncc(C(=O)Nc3c(C)cccc3Cl)s2)cc(N2CCN(CCO)CC2)n1 [Dasatinib] (partner 0.075 µM); assay: as above
How it was run: as §1

| Cell Line | relative viability ([1]; first compound 10 µM) | relative viability ([1]; first compound 31.62 µM) | relative viability ([1]; first compound 100 µM) | relative viability ([1]; first compound 316.23 µM) | relative viability ([1]; first compound 1000 µM) | relative viability ([2]; first compound 10 µM) | relative viability ([2]; first compound 31.62 µM) | relative viability ([2]; first compound 100 µM) | relative viability ([2]; first compound 316.23 µM) | relative viability ([2]; first compound 1000 µM) |
| --- | --- | --- | --- | --- | --- | --- | --- | --- | --- | --- |
| NCI-H1355 | 0.752 | 0.704 | 0.768 | 0.701 | 0.752 | 0.718 | 0.638 | 0.681 | 0.638 | 0.778 |
| SW 900 | 0.152 | 0.177 | 0.179 | 0.192 | 0.214 | 0.844 | 0.989 | 0.73 | 0.825 | 0.766 |
| A-427 | 1.21 | 0.972 | 1.04 | 0.952 | 0.91 | 0.53 | 0.722 | 0.676 | 0.74 | 0.695 |
| NCI-H1793 | 0.22 |  | 0.147 | 0.16 | 0.235 | 0.38 |  | 0.42 | 0.342 | 0.515 |
| NCI-H1563 | 0.588 | 0.629 | 0.577 | 0.407 | 0.584 | 0.535 | 0.573 | 0.574 | 0.545 | 0.489 |
| NCI-H596 | 0.98 | 1.18 | 1.08 | 1.02 | 1.06 | 0.622 | 0.67 | 0.757 | 0.696 | 0.655 |
| NCI-H2228 | 0.133 | 0.185 | 0.157 | 0.165 | 0.209 | 0.519 | 0.576 | 0.438 | 0.458 | 0.55 |
| NCI-H661 | 0.844 | 0.837 | 0.876 | 0.807 | 0.354 |  | 0.895 | 0.995 | 0.828 | 0.893 |
| 201T |  | 1.15 | 1.1 | 1.06 | 1.03 |  | 0.579 | 0.63 | 0.53 | 0.559 |
| HARA |  | 0.897 | 0.895 | 0.775 | 0.776 |  | 0.311 | 0.389 | 0.319 | 0.423 |
| NCI-H3122 | 0.076 | 0.0878 | 0.0846 | 0.0862 | 0.113 | 0.509 | 0.879 | 0.897 | 0.666 | 0.896 |
| NCI-H1651 | 1.19 | 1.3 | 1.06 | 0.828 | 0.989 | 0.757 | 0.349 | 0.346 | 0.361 | 0.464 |
| SK-MES-1 | 0.83 | 0.889 | 0.95 | 0.747 | 0.744 | 0.252 | 0.41 | 0.338 | 0.314 | 0.321 |
| NCI-H2085 | 0.429 | 0.441 | 0.404 | 0.336 | 0.475 | 0.327 | 0.336 | 0.333 | 0.306 | 0.358 |
| ChaGo-K-1 | 0.599 | 0.751 | 0.67 | 0.634 | 0.696 | 0.742 | 0.712 | 0.637 | 0.501 | 0.722 |
| SK-LU-1 | 0.204 | 0.204 | 0.221 | 0.204 | 0.244 | 0.171 | 0.192 | 0.174 | 0.17 | 0.177 |
| COR-L23 | 0.635 | 0.655 | 0.593 | 0.495 | 0.302 | 0.496 | 0.436 | 0.413 | 0.393 | 0.121 |

From the supplement of paper PMC10307832
